Data from PubChem BioAssay AID330 (DTP/NCI, 2004).
Where “and” joins values, the source holds several entries; their conditions need not be identical. Equal values may be shown once. Toxic doses and inconclusive results are not listed.

System: P388 leukemia ip, CD2F1 mice, survival T/C
Assay: NCI In Vivo Anticancer Drug Screen. Data for tumor model P388 Leukemia (intraperitoneal) in CD2F1 (CDF1) mice
Conditions: endpoint: median survival time, higher = longer survival
Method in brief: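 Mice carrying the transplanted tumor received test compound or vehicle. Survival was recorded in each group, and the value is the treated-group measurement divided by that of the vehicle-treated control group.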

[1] = dose: 100.0 mg/kg/injection, schedule: Q01DX001 (ip), vehicle: saline with Tween-80
[2] = dose: 200.0 mg/kg/injection, schedule: Q01DX001 (ip), vehicle: saline with Tween-80
[3] = dose: 400.0 mg/kg/injection, schedule: Q01DX001 (ip), vehicle: saline with Tween-80
[4] = dose: 50.0 mg/kg/injection, schedule: Q01DX005 (ip), vehicle: Klucel (hydroxypropylcellulose) (HPC)
[5] = dose: 100.0 mg/kg/injection, schedule: Q01DX005 (ip), vehicle: Klucel (hydroxypropylcellulose) (HPC)
[6] = dose: 200.0 mg/kg/injection, schedule: Q01DX005 (ip), vehicle: Klucel (hydroxypropylcellulose) (HPC)
[7] = dose: 60.0 mg/kg/injection, schedule: Q01DX005 (ip), vehicle: saline with Tween-80
[8] = dose: 120.0 mg/kg/injection, schedule: Q01DX005 (ip), vehicle: saline with Tween-80
[9] = dose: 240.0 mg/kg/injection, schedule: Q01DX005 (ip), vehicle: saline with Tween-80
[10] = dose: 50.0 mg/kg/injection, schedule: Q01DX005 (ip), vehicle: saline with Tween-80
[11] = dose: 100.0 mg/kg/injection, schedule: Q01DX005 (ip), vehicle: saline with Tween-80
[12] = dose: 200.0 mg/kg/injection, schedule: Q01DX005 (ip), vehicle: saline with Tween-80
[13] = dose: 100.0 mg/kg/injection, schedule: Q04DX002 (ip), vehicle: saline with Tween-80
[14] = dose: 200.0 mg/kg/injection, schedule: Q04DX002 (ip), vehicle: saline with Tween-80
[15] = dose: 400.0 mg/kg/injection, schedule: Q04DX002 (ip), vehicle: saline with Tween-80
[16] = dose: 25.0 mg/kg/injection, schedule: Q01DX005 (ip), vehicle: Klucel (hydroxypropylcellulose) (HPC)

Cc1ccc(S(=O)(=O)OC2C=CC(=O)C(OC(=O)c3ccccc3)C2OC(=O)c2ccccc2)cc1 (stereo unspecified)
T/C (dose: 50.0 mg/kg/injection, schedule: Q01DX001 (ip), vehicle: saline with Tween-80): 102 % of control
T/C [1]: 100 % of control
T/C [2]: 91 % of control
T/C [3]: 98 % of control

COc1cc(S(=O)(=O)O)ccc1N=N/C(=N\Nc1ccc(S(=O)(=O)O)cc1OC)C(N)=O
T/C [4]: 100 % of control
T/C [5]: 108 % of control and 92 % of control
T/C [6]: 103 % of control and 93 % of control

O=C(CNC(=O)c1ccccc1)N/N=C/c1ccco1
T/C [7]: 95 % of control
T/C [8]: 101 % of control
T/C [9]: 100 % of control

Clc1c2ccccc2nc2ccccc12
T/C [10]: 98 % of control
T/C [11]: 91 % of control
T/C [12]: 98 % of control

CC1NC(=O)N(Cc2ccccc2Cl)C1=O (stereo unspecified)
T/C [4]: 110 % of control
T/C [5]: 106 % of control
T/C [6]: 110 % of control

C=CCOc1ccc2ccc(=O)oc2c1
T/C (dose: 50.0 mg/kg/injection, schedule: Q04DX003 (ip), vehicle: saline with Tween-80): 109 % of control
T/C (dose: 100.0 mg/kg/injection, schedule: Q04DX003 (ip), vehicle: saline with Tween-80): 104 % of control
T/C (dose: 200.0 mg/kg/injection, schedule: Q04DX003 (ip), vehicle: saline with Tween-80): 101 % of control

COc1ccc(Br)cc1/C=C/[N+](=O)[O-]
T/C (dose: 12.5 mg/kg/injection, schedule: Q01DX009 (ip), vehicle: saline with Tween-80): 113 % of control
T/C (dose: 25.0 mg/kg/injection, schedule: Q01DX009 (ip), vehicle: saline with Tween-80): 122 % of control

Oc1ccccc1/C=N/Nc1ccc2ccccc2n1
T/C (dose: 25.0 mg/kg/injection, schedule: Q04DX003 (ip), vehicle: saline): 96 % of control
T/C (dose: 50.0 mg/kg/injection, schedule: Q04DX003 (ip), vehicle: saline): 95 % of control
T/C (dose: 100.0 mg/kg/injection, schedule: Q04DX003 (ip), vehicle: saline): 102 % of control
T/C (dose: 200.0 mg/kg/injection, schedule: Q04DX003 (ip), vehicle: saline): 93 % of control

CC1=C[P+](c2ccccc2)(c2ccccc2)C=C(c2ccccc2)O1
T/C (dose: 3.12 mg/kg/injection, schedule: Q01DX005 (ip), vehicle: saline): 105 % of control
T/C (dose: 6.25 mg/kg/injection, schedule: Q01DX005 (ip), vehicle: saline): 122 % of control and 123 % of control
T/C (dose: 12.5 mg/kg/injection, schedule: Q01DX005 (ip), vehicle: saline): 118 % of control

O=S1(=O)CC(Cl)(Br)C1 (tested in a mixture with another compound)
T/C (dose: 12.5 mg/kg/injection, schedule: Q01DX009 (ip), vehicle: Klucel (hydroxypropylcellulose) (HPC)): 96 % of control
T/C (dose: 25.0 mg/kg/injection, schedule: Q01DX009 (ip), vehicle: Klucel (hydroxypropylcellulose) (HPC)): 93 % of control
T/C (dose: 50.0 mg/kg/injection, schedule: Q01DX009 (ip), vehicle: Klucel (hydroxypropylcellulose) (HPC)): 100 % of control
T/C (dose: 100.0 mg/kg/injection, schedule: Q01DX009 (ip), vehicle: Klucel (hydroxypropylcellulose) (HPC)): 96 % of control

COC1=C(C)C(=O)C2=C(C1=O)C(CO)N1C(C#N)C3CC4C(C1C2N1CCOC41)N3C (stereo unspecified)
T/C (dose: 0.15 mg/kg/injection, schedule: Q01DX005 (ip), vehicle: acid diluted with saline): 111 % of control and 117 % of control
T/C (dose: 0.3 mg/kg/injection, schedule: Q01DX005 (ip), vehicle: acid diluted with saline): 113 % of control
T/C (dose: 0.4 mg/kg/injection, schedule: Q01DX005 (ip), vehicle: saline + alcohol): 152 % of control
T/C (dose: 0.6 mg/kg/injection, schedule: Q01DX005 (ip), vehicle: acid diluted with saline): 123 % of control
T/C (dose: 0.8 mg/kg/injection, schedule: Q01DX005 (ip), vehicle: saline + alcohol): 154 % of control

COCC1(COC)CCN(C2CC(O[C@H]3C[C@](O)(C(C)=O)Cc4c(O)c5c(c(O)c43)C(=O)c3c(OC)cccc3C5=O)OC(C)C2O)CC1 (stereo partly specified)
T/C (dose: 1.56 mg/kg/injection, schedule: Q04DX003 (ip), vehicle: water): 103 % of control
T/C (dose: 3.12 mg/kg/injection, schedule: Q04DX003 (ip), vehicle: water): 110 % of control and 113 % of control
T/C (dose: 12.5 mg/kg/injection, schedule: Q04DX003 (ip), vehicle: water): 183 % of control and 212 % of control
T/C (dose: 25.0 mg/kg/injection, schedule: Q04DX003 (ip), vehicle: water): 152 % of control

CCC[CH2][Hg][Cl]
T/C (dose: 3.3 mg/kg/injection, schedule: Q01DX009 (ip), vehicle: other): 95 % of control
T/C (dose: 5.0 mg/kg/injection, schedule: Q01DX009 (ip), vehicle: other): 100 % of control
T/C (dose: 7.5 mg/kg/injection, schedule: Q01DX009 (ip), vehicle: other): 118 % of control

Cc1ccc(Nc2ncnc3c2c(=O)n(C)c(=O)n3C)cc1C
T/C (dose: 12.5 mg/kg/injection, schedule: Q01DX005 (ip), vehicle: saline with Tween-80): 100 % of control
T/C (dose: 25.0 mg/kg/injection, schedule: Q01DX005 (ip), vehicle: saline with Tween-80): 100 % of control
T/C [10]: 86 % of control and 91 % of control
T/C [11]: 88 % of control
T/C [12]: 96 % of control

O=C1CCCC2=C1C(c1ccc(Cl)c(Cl)c1)C1=C(CCCC1=O)O2
T/C [7]: 95 % of control
T/C [8]: 95 % of control
T/C [9]: 94 % of control

Cc1cc[n+](C2=C(Nc3ccc(Cl)cc3Cl)C(=O)c3ccccc3C2=O)cc1
T/C [7]: 99 % of control
T/C [8]: 106 % of control
T/C [9]: 108 % of control

O=C(Nc1ccc(NC(=O)Nc2ccc(C3=NCCN3)cc2)cc1)Nc1ccc(C2=NCCN2)cc1
T/C (dose: 110.0 mg/kg/injection, schedule: Q01DX010 (ip), vehicle: saline): 118 % of control
T/C (dose: 165.0 mg/kg/injection, schedule: Q01DX010 (ip), vehicle: saline): 118 % of control

N#CC1CC(c2ccc([N+](=O)[O-])cc2)N(c2ccccc2)O1 (stereo unspecified)
T/C [1]: 95 % of control
T/C [13]: 100 % of control and 104 % of control
T/C [2]: 94 % of control
T/C [14]: 95 % of control and 88 % of control
T/C [3]: 92 % of control
T/C [15]: 98 % of control and 90 % of control

CCOC(=O)C1C(c2ccc(OC)cc2)c2cc3c(cc2OC1(C)N1CCCC1)OCO3 (stereo unspecified)
T/C (dose: 60.0 mg/kg/injection, schedule: Q01DX005 (ip), vehicle: Klucel (hydroxypropylcellulose) (HPC)): 98 % of control
T/C (dose: 120.0 mg/kg/injection, schedule: Q01DX005 (ip), vehicle: Klucel (hydroxypropylcellulose) (HPC)): 96 % of control
T/C (dose: 240.0 mg/kg/injection, schedule: Q01DX005 (ip), vehicle: Klucel (hydroxypropylcellulose) (HPC)): 93 % of control

O=C(Nc1nncs1)c1ccncc1
T/C (dose: 50.0 mg/kg/injection, schedule: Q04DX002 (ip), vehicle: saline with Tween-80): 104 % of control
T/C [13]: 112 % of control
T/C [14]: 157 % of control
T/C [15]: 153 % of control and 164 % of control

COc1ccc(C(O)Cc2cc(OC)c(OC)c(OC)c2)cc1O (stereo unspecified)
T/C (dose: 31.25 mg/kg/injection, schedule: Q01DX009 (ip), vehicle: saline + Tween-80 + alcohol): 105 % of control
T/C (dose: 62.5 mg/kg/injection, schedule: Q01DX009 (ip), vehicle: saline + Tween-80 + alcohol): 98 % of control
T/C (dose: 125.0 mg/kg/injection, schedule: Q01DX009 (ip), vehicle: saline + Tween-80 + alcohol): 89 % of control
T/C (dose: 250.0 mg/kg/injection, schedule: Q01DX009 (ip), vehicle: saline + Tween-80 + alcohol): 91 % of control

CCOC1CC(C)(O)C(C(=O)OC)c2cc3c(c(O)c21)C(=O)c1c(O)cc2c(c1C3=O)OC1OC2(C)C(O)C(N(C)C)C1O (stereo unspecified)
T/C (dose: 3.16 mg/kg/injection, schedule: Q01DX009 (ip), vehicle: other): 151 % of control
T/C (dose: 6.25 mg/kg/injection, schedule: Q01DX009 (ip), vehicle: other): 161 % of control
T/C (dose: 12.5 mg/kg/injection, schedule: Q01DX009 (ip), vehicle: other): 171 % of control

COc1ccc2c3c([nH]c2c1N)C(C)NCC3 (stereo unspecified)
T/C (dose: 12.5 mg/kg/injection, schedule: Q01DX005 (ip), vehicle: Klucel (hydroxypropylcellulose) (HPC)): 102 % of control
T/C [16]: 96 % of control
T/C [4]: 104 % of control
T/C [5]: 104 % of control

COC1(C)CC(c2ccccc2)=NO1 (stereo unspecified)
T/C [7]: 96 % of control
T/C [8]: 103 % of control
T/C [9]: 96 % of control

CC(C)(C)c1ccnc(C(O)(C(F)(F)F)C(F)(F)F)c1
T/C [16]: 93 % of control
T/C [4]: 101 % of control
T/C [5]: 108 % of control
T/C [6]: 103 % of control

O=C1NC(=O)C(C(=O)Nc2ccc(Cl)cc2)c2ccccc21 (stereo unspecified)
T/C [4]: 101 % of control
T/C [5]: 95 % of control
T/C [6]: 99 % of control
